Laboratory results taken from PMC10339607, “Screening and identification of emodin as an EBV DNase inhibitor to prevent its biological functions” (Virology Journal, 2023).

The molecules below were run against T1, EBV DNase (BGLF5) (Epstein-barr virus strain ag876, UniProt Q1HVE7) (assay: PicoGreen fluorescence nuclease activity assay).
T1 construct: full-length wild-type, 470 amino acids; pET-15b His-tag; E. coli BL21(DE3) pLysS
T1 sequence (Q1HVE7 whole entry): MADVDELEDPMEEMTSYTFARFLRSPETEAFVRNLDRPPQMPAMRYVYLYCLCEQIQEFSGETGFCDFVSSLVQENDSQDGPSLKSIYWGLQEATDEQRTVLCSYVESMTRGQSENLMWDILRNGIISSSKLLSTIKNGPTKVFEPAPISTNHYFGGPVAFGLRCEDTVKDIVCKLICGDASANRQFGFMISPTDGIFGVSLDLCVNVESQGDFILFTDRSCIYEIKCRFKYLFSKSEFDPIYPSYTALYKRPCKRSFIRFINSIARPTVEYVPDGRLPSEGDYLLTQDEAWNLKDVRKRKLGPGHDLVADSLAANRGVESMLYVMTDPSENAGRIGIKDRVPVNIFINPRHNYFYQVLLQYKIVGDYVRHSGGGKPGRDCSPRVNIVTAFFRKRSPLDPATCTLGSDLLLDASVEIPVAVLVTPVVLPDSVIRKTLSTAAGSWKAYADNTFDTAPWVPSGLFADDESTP
Format: biochemical
With O=c1c(O)c(-c2ccc(O)cc2)oc2cc(O)cc(O)c12 [Kaempferol] the IC50 was 69 µM. Work on C=CCSSCC=C [diallyl disulfide] yielded an IC50 greater than 100 µM. In the case of Cc1cc(O)c2c(c1)C(=O)c1cc(O)cc(O)c1C2=O [emodin], the IC50 is reported as 31 µM. O=C(O[C@@H]1Cc2c(O)cc(O)cc2O[C@@H]1c1cc(O)c(O)c(O)c1)c1cc(O)c(O)c(O)c1 [epigallocatechin gallate] showed an IC50 of 89 µM. C[S@@+]([O-])CCCCN=C=S [sulforaphane] was tested, and the IC50 was greater than 100 µM.
